Measurements published in patent US20240335544A1, “M6PR CELL SURFACE RECEPTOR BINDING COMPOUNDS AND CONJUGATES” (LYCIA THERAPEUTICS, INC., priority 2021, published 2024).
Entries after “also recorded” stand apart in the source; their conditions may differ. Where two headings read alike, the source gives them in different places. Blank lines part the entries; values can stand above or below the compound they belong to.

Tests used:
Jurkat cells = assay: Uptake of IgE-Alexa488 target by omalizumab conjugates in Jurkat cells; assay type: cell-based; settings: for relative cellular uptake activity of IgE-Alexa488, omalizumab conjugates of Table 15A / relative cellular uptake activity of IgE-Alexa488, omalizumab conjugates of Table 15B: 1 hour; for relative cellular uptake activity of IgE-Alexa488, omalizumab conjugates of Table 15A: FIGS. 15-17; for relative cellular uptake activity of IgE-Alexa488, omalizumab conjugates of Table 15B: FIGS. 18-21
Procedure: The omalizumab conjugates of Example 142 were bound to IgE-Alexa488 (prepared according to Example 144), as follows: equal molar ratios of omalizumab (anti-IgE) conjugate and IgE-Alexa488 were added in tissue culture media for 30 minutes at room temperature. The resulting anti-IgE conjugate:IgE antibody-Alexa488 compositions were added to Jurkat cells (100 k cells/50 ul per well, n=2), and Alexa488 fluorescence levels in the cells were measured at 1 hour by flow cytometry. As the fluorescently labelled target (IgE antibody) accumulates in cells, the fluorescence presents a way to measure total intracellular uptake by cells over time.

[1] = target: T1, M6PR (Domains I-9, R&D Systems) (Homo sapiens, UniProt P11717); assay: General M6PR binding assay (fluorescence polarization); settings: Table 16F, unconjugated compounds, 100 nM M6PR, 1 nM probe, 2 hr incubation
T1 construct: with 100 nM M6PR (Domains I-9, R&D Systems) and 1 nM probe; purchased R&D Systems
T1 sequence (P11717 41-1365 limits assumed): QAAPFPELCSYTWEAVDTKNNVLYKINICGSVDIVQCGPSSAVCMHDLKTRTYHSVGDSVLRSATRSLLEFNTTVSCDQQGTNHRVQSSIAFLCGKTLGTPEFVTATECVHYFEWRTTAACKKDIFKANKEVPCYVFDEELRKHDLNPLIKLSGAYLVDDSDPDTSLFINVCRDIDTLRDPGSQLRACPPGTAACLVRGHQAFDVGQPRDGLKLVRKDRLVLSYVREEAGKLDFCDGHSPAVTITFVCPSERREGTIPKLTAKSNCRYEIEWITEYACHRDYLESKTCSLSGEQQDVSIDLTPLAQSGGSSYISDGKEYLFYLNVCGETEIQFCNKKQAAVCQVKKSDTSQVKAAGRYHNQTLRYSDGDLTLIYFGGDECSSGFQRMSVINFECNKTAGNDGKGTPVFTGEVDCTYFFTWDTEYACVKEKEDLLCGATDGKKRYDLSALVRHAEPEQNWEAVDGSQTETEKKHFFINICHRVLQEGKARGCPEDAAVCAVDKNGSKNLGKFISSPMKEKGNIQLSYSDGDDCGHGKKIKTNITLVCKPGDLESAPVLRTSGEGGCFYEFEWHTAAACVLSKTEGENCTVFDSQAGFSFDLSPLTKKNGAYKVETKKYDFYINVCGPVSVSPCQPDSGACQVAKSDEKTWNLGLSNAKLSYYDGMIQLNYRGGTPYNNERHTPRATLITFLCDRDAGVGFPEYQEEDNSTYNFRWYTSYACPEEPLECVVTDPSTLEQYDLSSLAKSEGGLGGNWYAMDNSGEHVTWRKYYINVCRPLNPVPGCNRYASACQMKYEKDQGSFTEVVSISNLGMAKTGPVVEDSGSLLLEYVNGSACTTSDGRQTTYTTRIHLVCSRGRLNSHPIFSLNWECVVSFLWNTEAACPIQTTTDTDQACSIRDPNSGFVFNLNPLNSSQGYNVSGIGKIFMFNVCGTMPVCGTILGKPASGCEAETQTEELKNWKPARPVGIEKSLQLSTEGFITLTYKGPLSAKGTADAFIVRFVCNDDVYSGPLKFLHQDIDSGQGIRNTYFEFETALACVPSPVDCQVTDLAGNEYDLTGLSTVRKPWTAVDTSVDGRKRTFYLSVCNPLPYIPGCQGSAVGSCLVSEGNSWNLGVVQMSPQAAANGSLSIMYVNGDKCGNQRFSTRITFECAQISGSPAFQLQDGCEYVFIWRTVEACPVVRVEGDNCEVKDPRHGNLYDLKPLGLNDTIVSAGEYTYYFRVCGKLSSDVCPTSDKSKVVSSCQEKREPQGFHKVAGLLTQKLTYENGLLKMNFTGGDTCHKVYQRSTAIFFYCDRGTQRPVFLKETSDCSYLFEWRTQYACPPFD
Procedure: M6PR binding was measured in black 96-well plates using a fluorescence polarization assay. A fluorescent probe consisting of a reference M6Pn ligand linked to Cy5 was synthesized. Test compounds were resuspended in DMSO and 3-fold serial dilutions were made at 100× final concentrations. Binding reactions were conducted in 100 μl final volume in 20 mM HEPES (pH 7.5) 100 mM NaCl 0.015% Tween-20 1% DMSO with 100 nM M6PR (Domains I-9, R&D Systems) and 1 nM probe. Fluorescence polarization was measured using Xex=620 nm, λem=688 nm on an Envision plate reader (Perkin Elmer) after 2 hr incubation time. Dose responses were conducted in duplicate and normalized to the response with DMSO (high) and 1 μM reference compound (low) on each plate. IC50 values were determined by fitting to 4-parameter curves in GraphPad Prism.

CI-M6PR = CI-M6PR (Homo sapiens, UniProt P11717); assay: Human CI-M6PR binding assay (ELISA); parameters: purchased R&D 6418-GR-050
Sequence of CI-M6PR (P11717 41-1365 limits assumed): as above
Procedure: Nunc black solid bottom MaxiSorp plates were allowed to incubate overnight at 4° C. coated with 1 μg/mL of recombinant human CI-M6PR protein (R&D, 6418-GR-050) in 50 μL PBS. The next day, coating was decanted and plates were washed 3× with PBS. Wells were blocked with 350 μL of 3% BSA-PBS for 1 hour at room temperature. […] 50 μL of diluted conjugates were added to the plate and allowed to incubate at room temperature for 2 hours. After incubation, solutions in plate were decanted and washed with 350 μL of 0.05% PBS-Tween20 three times, drying the plate each wash on a clean paper towel. 50 μL of peroxidase AffiniPure Mouse Anti-Human IgG (Jackson Immuno, 209-035-088) diluted in 3% BSA-PBS to […] was added to the plate and allowed to incubate for 1 hour at room temperature in the dark. After incubation, solutions in plate were decanted and washed with 350 μL of 0.05% PBS-Tween20 3 times, drying the plate each wash on a clean paper towel. […] 50 μL of QuantaBlu solution was added to wells and allowed to incubate for 5-10 minutes at room temperature. After incubation, plates were read on a Perkin Elmer EnVision using photometric 340 and Umbelliferone 460 filter sets for excitation and emission, respectively. Data analysis and non-linear curve-fitting was performed using GraphPad Prism.

[2] = Table 16D, conjugate, m average loading DAR 2, read-out: EC50 in M6PR binding assay for conjugates of compounds of varying multivalency

SMILES: O=C(NCCCCc1cn(CCOCCOCCOCCOCCC(=O)Oc2c(F)c(F)c(F)c(F)c2F)nn1)Nc1ccc(O[C@H]2C[C@H](CCP(=O)(O)O)[C@@H](O)[C@H](O)[C@@H]2O)cc1 [Compound 665]
relative cellular uptake activity of IgE-Alexa488, omalizumab conjugates of Table 15A (Jurkat cells): low activity

IC50 [1]: 100 to 500 nM
SMILES: CC(=O)N[C@@H](CCCCn1cc(CCCCNC(=O)Nc2ccc(O[C@H]3O[C@H](CCP(=O)(O)O)[C@@H](O)[C@H](O)[C@@H]3O)cc2)nn1)C(=O)NCCOCCOCCOCCOCCC(=O)O [Compound 771]

SMILES: CO[C@H]1O[C@H](COCCCCCc2cn(CCOCCOCCOCCOCCC(=O)Oc3c(F)c(F)c(F)c(F)c3F)nn2)[C@@H](O)[C@H](O)[C@@H]1O[C@H]1O[C@H](CCP(=O)(O)O)[C@@H](O)[C@H](O)[C@@H]1O [Compound 659]
relative cellular uptake activity of IgE-Alexa488, omalizumab conjugates of Table 15B (Jurkat cells): potent and comparable activity to conjugate of a conjugate of compound 520 (I-7)

SMILES: CO[C@H]1OC(c2cn(CCOCCOCCOCCOCCOCCOCCC(=O)Oc3c(F)c(F)c(F)c(F)c3F)nn2)[C@@H](O)[C@H](O)[C@@H]1O[C@H]1O[C@H](CCP(=O)(O)O)[C@@H](O)[C@H](O)[C@@H]1O (stereo partly shown) [Compound 660]
relative cellular uptake activity of IgE-Alexa488, omalizumab conjugates of Table 15B (Jurkat cells): potent and comparable activity to conjugate of a conjugate of compound 520 (I-7)

SMILES: O=C(CCOCCOCCOCCOCCn1cc(CCCCNC(=S)Nc2ccc(O[C@H]3O[C@H](CC(C(=O)O)C(=O)O)[C@@H](O)[C@H](O)[C@@H]3O)cc2)nn1)Oc1c(F)c(F)c(F)c(F)c1F [Compound 559]
EC50 (CI-M6PR; Table 16E, conjugate, m average DAR 9, read-out: EC50 in M6PR binding assay for conjugates of monovalent compounds of varying linker length and loading): 3.36 nM

SMILES: O=C(CCOCCOCCOCCN(CCOCCOCCOCCn1cc(CCCCNC(=S)Nc2ccc(O[C@H]3O[C@H](CCP(=O)(O)O)[C@@H](O)[C@H](O)[C@@H]3O)cc2)nn1)CCOCCOCCOCCn1cc(CCCCNC(=S)Nc2ccc(O[C@H]3O[C@H](CCP(=O)(O)O)[C@@H](O)[C@H](O)[C@@H]3O)cc2)nn1)Oc1c(F)c(F)c(F)c(F)c1F [704 (I-40)]
EC50 (CI-M6PR; [2]): 0.66 nM
EC50 (CI-M6PR; Table 16D, conjugate, m average loading DAR 7, read-out: EC50 in M6PR binding assay for conjugates of compounds of varying multivalency): 0.2 nM

SMILES: O=C(NCCCCc1cn(CCOCCOCCOCCOCCC(=O)Oc2c(F)c(F)c(F)c(F)c2F)nn1)Nc1ccc(S[C@H]2O[C@H](CCP(=O)(O)O)[C@@H](O)[C@H](O)[C@@H]2O)cc1 [Compound 552]
relative cellular uptake activity of IgE-Alexa488, omalizumab conjugates of Table 15B (Jurkat cells): comparable activity to an 0-glycoside (520 (I-7) with m=8); also recorded: more activity when at m=6 loading versus m=4 loading
relative cellular uptake activity of IgE-Alexa488, omalizumab conjugates of Table 19 (Jurkat cells; FIG. 23, entire dose response range): comparable by less activity that the conjugate of α-O-glycoside (529)

SMILES: O=C(NCCCCc1cn(CCOCCOCCOCCOCCC(=O)Oc2c(F)c(F)cc(F)c2F)nn1)Nc1ccc(O[C@H]2O[C@H](CCP(=O)(O)O)[C@@H](O)[C@H](O)[C@@H]2O)cc1 [Compound 558]
relative cellular uptake activity of IgE-Alexa488, omalizumab conjugates of Table 15A (Jurkat cells): active in this assay, although less active in comparison to the corresponding analog containing a phosphonate hydrophilic head group (529 (I-38))

IC50 [1]: 100 to 500 nM
SMILES: C#CCCCCNC(=O)Nc1ccc(O[C@H]2O[C@H](CCP(=O)(O)O)[C@@H](O)[C@H](O)[C@@H]2O)cc1 [Compound 38C]

SMILES: CC(=O)N[C@@H](CCCCn1cc(CCCCNC(=O)Nc2ccc(O[C@H]3O[C@H](CCP(=O)(O)O)[C@@H](O)[C@H](O)[C@@H]3O)cc2)nn1)C(=O)N[C@@H](CCCCn1cc(CCCCNC(=O)Nc2ccc(O[C@H]3O[C@H](CCP(=O)(O)O)[C@@H](O)[C@H](O)[C@@H]3O)cc2)nn1)C(=O)NCCOCCOCCOCCOCCC(=O)O [Compound 769]
IC50 [1]: 100 to 500 nM

IC50 [1]: 50 to 100 nM
SMILES: O=C(O)CCOCCOCCOCCOCCNC(=O)[C@H](CCCCn1cc(CCCCNC(=O)Nc2ccc(O[C@H]3O[C@H](CCP(=O)(O)O)[C@@H](O)[C@H](O)[C@@H]3O)cc2)nn1)NC(=O)[C@H](CCCCn1cc(CCCCNC(=O)Nc2ccc(O[C@H]3O[C@H](CCP(=O)(O)O)[C@@H](O)[C@H](O)[C@@H]3O)cc2)nn1)NC(=O)[C@H](CCCCn1cc(CCCCNC(=O)Nc2ccc(O[C@H]3O[C@H](CCP(=O)(O)O)[C@@H](O)[C@H](O)[C@@H]3O)cc2)nn1)NC(=O)CCCn1cc(CCCCNC(=O)Nc2ccc(O[C@H]3O[C@H](CCP(=O)(O)O)[C@@H](O)[C@H](O)[C@@H]3O)cc2)nn1 [Compound 772]

SMILES: Cc1cc(NC(=O)NCCCCc2cn(CCOCCOCCOCCOCCC(=O)Oc3c(F)c(F)c(F)c(F)c3F)nn2)ccc1O[C@H]1O[C@H](CCP(=O)(O)O)[C@@H](O)[C@H](O)[C@@H]1O [545 (I-87)]
EC50 (CI-M6PR; Table 16C, cetuximab (anti-EGFR) conjugate, average loading DAR 9.2, read-out: EC50 in M6PR binding assay): 0.3 nM

SMILES: O=C(CCOCCOCCOCCN(CCOCCOCCOCCn1cc(CCO[C@H]2O[C@H](CCP(=O)(O)O)[C@@H](O)[C@H](O)[C@@H]2O)nn1)CCOCCOCCOCCn1cc(CCO[C@H]2O[C@H](CCP(=O)(O)O)[C@@H](O)[C@H](O)[C@@H]2O)nn1)Oc1c(F)c(F)c(F)c(F)c1F [Compound 716]
relative cellular uptake activity of IgE-Alexa488, omalizumab conjugates of Table 15A (Jurkat cells): inferior uptake to 520 (I-7) with m=8

SMILES: O=C(CCCn1cc(CCCCNC(=S)Nc2ccc(O[C@H]3O[C@H](CCP(=O)(O)O)[C@@H](O)[C@H](O)[C@@H]3O)cc2)nn1)N[C@@H](CCCCn1cc(CCCCNC(=S)Nc2ccc(O[C@H]3O[C@H](CCP(=O)(O)O)[C@@H](O)[C@H](O)[C@@H]3O)cc2)nn1)C(=O)N[C@@H](CCCCn1cc(CCCCNC(=S)Nc2ccc(O[C@H]3O[C@H](CCP(=O)(O)O)[C@@H](O)[C@H](O)[C@@H]3O)cc2)nn1)C(=O)N[C@@H](CCCCn1cc(CCCCNC(=S)Nc2ccc(O[C@H]3O[C@H](CCP(=O)(O)O)[C@@H](O)[C@H](O)[C@@H]3O)cc2)nn1)C(=O)NCCOCCOCCOCCOCCC(=O)Oc1c(F)c(F)c(F)c(F)c1F [763 (I-52)]
EC50 (CI-M6PR; [2]): 0.3 nM

IC50 [1]: 100 to 500 nM
SMILES: O=C(NCCCCc1cn(-c2cccnc2)nn1)Nc1ccc(C[C@H]2O[C@H](CCP(=O)(O)O)[C@@H](O)[C@H](O)[C@@H]2O)cc1 [Compound P5]

IC50 [1]: ≥ 500 nM
SMILES: C#CCCCCCOC[C@H]1O[C@H](OC)[C@@H](O[C@H]2O[C@H](CCP(=O)(O)O)[C@@H](O)[C@H](O)[C@@H]2O)[C@@H](O)[C@@H]1O [Compound I-108, (2-((2R,3S,4S,5S,6R)-6-(((2S,3S,4S,5S,6R)-6-((hept-6-yn-1-yloxy)methyl)-4,5-dihydroxy-2-methoxytetrahydro-2H-pyran-3-yl)oxy)-3,4,5-trihydroxytetrahydro-2H-pyran-2-yl)ethyl)phosphonic acid]

SMILES: O=C(CCOCCOCCOCCOCCn1cc(CCCCNC(=S)Nc2ccc(O[C@H]3O[C@H](CCS(=O)(=O)O)[C@@H](O)[C@H](O)[C@@H]3O)cc2)nn1)Oc1c(F)c(F)c(F)c(F)c1F [556 (1-104)]
relative cellular uptake activity of IgE-Alexa488, omalizumab conjugates of Table 15A (Jurkat cells): low activity

IC50 [1]: 100 to 500 nM
SMILES: C#CCCCC(=O)Nc1ccc2cc(O[C@H]3O[C@H](CCP(=O)(O)O)[C@@H](O)[C@H](O)[C@@H]3O)ccc2c1 [Compound I-68, (2-((2R,3S,4S,5S,6R)-6-((6-(hex-5-ynamido)naphthalen-2-yl)oxy)-3,4,5-trihydroxytetrahydro-2H-pyran-2-yl)ethyl)phosphonic acid]

SMILES: O=C(CCOCCOCCOCCOCCOCCOCCOCCOCc1cn([C@H]2O[C@H](CCP(=O)(O)O)[C@@H](O)[C@H](O)[C@@H]2O)nn1)ON1C(=O)CCC1=O [Compound 664]
relative cellular uptake activity of IgE-Alexa488, omalizumab conjugates of Table 15B (Jurkat cells): minimal activity

SMILES: O=C(CCCn1cc(CCCCNC(=S)Nc2ccc(O[C@H]3O[C@H](CCP(=O)(O)O)[C@@H](O)[C@H](O)[C@@H]3O)cc2)nn1)N[C@@H](CCCCn1cc(CCCCNC(=S)Nc2ccc(O[C@H]3O[C@H](CCP(=O)(O)O)[C@@H](O)[C@H](O)[C@@H]3O)cc2)nn1)C(=O)N[C@@H](CCCCn1cc(CCCCNC(=S)Nc2ccc(O[C@H]3O[C@H](CCP(=O)(O)O)[C@@H](O)[C@H](O)[C@@H]3O)cc2)nn1)C(=O)N[C@@H](CCCCn1cc(CCCCNC(=S)Nc2ccc(O[C@H]3O[C@H](CCP(=O)(O)O)[C@@H](O)[C@H](O)[C@@H]3O)cc2)nn1)C(=O)NCCOCCOCCOCCOCCC(=O)Oc1c(F)c(F)c(F)c(F)c1F [Compound I-52]
EC50 (CI-M6PR; Table 16B, antibody conjugate, average loading DAR 6, read-out: EC50 in M6PR binding assay): 0.28 nM
